Assay results reported in US9606132B2, “Methods of monitoring adherence to lurasidone therapy” (Ameritox, Ltd., priority 2013, dated 2017).
Read-outs that look alike come from different tables or passages of the source.

Experiments:
[1] = in vivo
Description: Urine samples of normally metabolizing human subjects who were known to be taking chronic doses of lurasidone were tested for the presence of lurasidone and eleven metabolites (excluding isomeric metabolites). Each patient sample was analyzed twice to ensure accuracy. Due to the high probability for false identification of isobars, MS/MS data was collected and selectively looked at to add confidence to the identification.

[2] = cited from earlier work; for presence in serum: mice, rats, dogs (M8 also monkeys), 10 mg/kg oral administration of radiolabelled lurasidone
[3] = cited from earlier work; for presence in serum: 40 mg oral dosing of radiolabelled lurasidone

O=C(O)C1CCCCC1CN1C(=O)C2C(C1=O)[C@@H]1CC[C@H]2C1O (some centres unmarked) [M5]
detectability in human urine (Example 1) ([1]; human): neither metabolite ID-20220 (M5) nor metabolite ID-20219 (M11) were found to be excreted through human urine in detectable amounts

O=C1C2C(C(=O)N1CC1CCCCC1CN1CCN(c3nsc4ccccc34)CC1)[C@@H]1CC[C@H]2C1O (some centres unmarked) [M8/M9, Hydroxy-Lurasidone]
detectability in human urine (Example 1) [1]: present in detectable quantities in each test of each subject's urine sample

O=C1C2C(C(=O)N1CC1CCCCC1CN1CCN(c3nsc4ccccc34)CC1)[C@@H]1CC[C@H]2C1O (some centres unmarked) [M8]
presence in serum [2]: present in an unspecified low amount
presence in serum ([3]; humans): present in an unspecified low amount

O=C1C2C(C(=O)N1CC1CCCCC1CN1CCN(c3nsc4ccccc34)CC1)[C@@H]1CC[C@H]2C1O (some centres unmarked) [M9]
identification in serum ([2]; rats and dogs): identified in rats and dogs

O=C1C2C(C(=O)N1CC1CCCCC1CN1CCN(c3n[s+]([O-])c4ccccc34)CC1)[C@H]1CC[C@@H]2C1 (some centres unmarked) [M10]
detectability in human urine (Example 1) [1]: not present at any significant amount

O=C(O[C@@H]1O[C@H](C(=O)O)[C@@H](O)[C@H](O)[C@H]1O)C1CCCCC1CN1C(=O)C2C(C1=O)[C@H]1CC[C@@H]2C1 (some centres unmarked) [M11 Gluc]
Lurasidone Metabolite Distribution in Human Urine (qualitative identification) [1]: ✓*

O=C(O)C1CCCCC1CN1C(=O)C2C(C1=O)[C@H]1CC[C@@H]2C1 (some centres unmarked) [M11, 2-{(3,5-Dioxo-4-azatricyclo[5.2.1.0^2,6]dec-4-yl)methyl}cyclohexanecarboxylic acid]
detectability in human urine (Example 1) ([1]; human): neither metabolite ID-20220 (M5) nor metabolite ID-20219 (M11) were found to be excreted through human urine in detectable amounts
Lurasidone Metabolite Distribution in Human Urine (qualitative identification) [1]: ✓^*
share of total radioactivity in plasma ([3]; plasma, post oral dosing): 24%

CSc1ccccc1C(=N)N1CCN(CC2CCCCC2CN2C(=O)C3C(C2=O)[C@H]2CC[C@@H]3C2)CC1 (some centres unmarked) [M21, S-Methyl Lurasidone]
detection as circulating metabolite in serum ([2]; any of the animal models, radiolabelled lurasidone): did not detect
detectability in human urine (Example 1) [1]: present in detectable quantities in each test of each subject's urine sample

[H]/N=C(/c1ccccc1SC)N1CCN(CC2CCCCC2CN2C(=O)C3C(C2=O)[C@@H]2CC[C@H]3C2O)CC1 (some centres unmarked) [M22, S-Methyl Hydroxy Lurasidone]
presence in serum [2]: present in an unspecified low amount
detection in other animal models ([2]; rabbits or monkeys): not detected in any amount
detectability in human urine (Example 1) [1]: present in detectable quantities in each test of each subject's urine sample
presence in serum ([3]; humans): present in an unspecified low amount
share of total drug-related exposure ([3]; humans): less than 10%
